Experimental findings from ChEMBL document CHEMBL1135123, “Discovery of L-791,943: a potent, selective, non emetic and orally active phosphodiesterase-4 inhibitor” (Bioorg Med Chem Lett, 2002) are described below.

Data set [1] concerns the target T1, 3',5'-cyclic-AMP phosphodiesterase 4A (Homo sapiens, UniProt P27815). Nature of the data set: Inhibitory concentration of compound against LPS- induced TNF-alpha production in whole human blood assay. Format: functional, tissue-based.
Target sequence in this assay (P27815 whole entry, the tested form may be a part, canonical isoform): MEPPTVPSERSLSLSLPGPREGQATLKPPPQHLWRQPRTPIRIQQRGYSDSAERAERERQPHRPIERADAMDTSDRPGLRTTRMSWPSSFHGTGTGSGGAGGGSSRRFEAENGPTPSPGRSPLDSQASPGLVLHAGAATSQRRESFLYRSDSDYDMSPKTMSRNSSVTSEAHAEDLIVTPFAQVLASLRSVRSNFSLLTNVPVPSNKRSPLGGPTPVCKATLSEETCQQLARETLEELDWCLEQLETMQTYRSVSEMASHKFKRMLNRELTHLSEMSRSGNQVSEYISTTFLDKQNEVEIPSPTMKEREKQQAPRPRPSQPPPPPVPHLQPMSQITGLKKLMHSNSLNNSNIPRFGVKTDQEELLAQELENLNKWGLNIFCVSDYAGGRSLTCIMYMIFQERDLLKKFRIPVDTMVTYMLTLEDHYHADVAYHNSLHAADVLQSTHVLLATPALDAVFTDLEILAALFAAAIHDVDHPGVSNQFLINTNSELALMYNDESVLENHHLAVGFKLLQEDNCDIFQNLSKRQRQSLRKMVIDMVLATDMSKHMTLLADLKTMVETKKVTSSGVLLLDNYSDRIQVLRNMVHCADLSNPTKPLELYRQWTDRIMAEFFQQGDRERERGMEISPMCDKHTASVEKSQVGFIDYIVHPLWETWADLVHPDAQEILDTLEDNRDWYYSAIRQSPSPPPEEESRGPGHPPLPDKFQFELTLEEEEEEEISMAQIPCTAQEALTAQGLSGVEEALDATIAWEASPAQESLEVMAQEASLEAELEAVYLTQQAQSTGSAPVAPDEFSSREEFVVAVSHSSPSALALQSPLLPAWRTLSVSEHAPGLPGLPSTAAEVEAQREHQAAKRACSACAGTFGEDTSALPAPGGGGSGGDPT
Data set [2] addresses T1, 3',5'-cyclic-AMP phosphodiesterase 4A. Nature of the data set: Inhibitory concentration against human PDE4A isoform using a construct representing the common region of spliced variants expressed as GST-fusion protein in Sf9 cells.
Target sequence in this assay (P27815 whole entry, looked up, stated change not applied, the tested form may be a part, canonical isoform): as the sequence (P27815 whole entry, the tested form may be a part, canonical isoform) above
Data set [3] is described as follows: Half life of compound was determined in squirrel monkey. Format: ADME. The note with it: in vivo.
A short description of data set [4]: Half life of compound was determined in rat. Particulars: in vivo. The data set is classed as ADME, organism-based.
Data set [5] is filed under the species Mustela putorius furo. As to the kind of experiment: Emetic effect in ferrets. Format: functional.
A short description of data set [6]: Ascaris-induced bronchoconstriction in anesthetized squirrel monkey pretreated with 5 mg/kg intravenously for 30 min. The data set is classed as functional. Particulars: route intravenous.
Data set [7] in a line: Bioavailability. The data set is classed as ADME, organism-based. The note with it: eutheria, in vivo.
A short description of data set [8]: Half-life period was determined. The data set is classed as ADME.
Data set [9] relates to Cavia porcellus. Nature of the data set: Ovalbumin induced bronchoconstriction in conscious guinea pig pretreated with 1 mg/kg intraperitoneal dose for 4 hr. The data set is classed as functional.
The test system of data set [10] is Ovis aries. As to the kind of experiment: Ascaris-induced early phase bronchoconstriction in conscious sheep administered intravenously at 2 mg/kg. Format: functional. The note with it: route intravenous.
For data set [11], the system named is Ovis aries. Nature of the data set: Ascaris-induced late phase bronchoconstriction in conscious sheep administered intravenously at 2 mg/kg. Format: functional. The note with it: route intravenous.
Data set [12] can be described thus: Ascaris-induced bronchoconstriction in anesthetized squirrel monkey pretreated with 3 mg/kg peroral dose for 4 hr. The data set is classed as functional. The note with it: route oral.

Molecules are shown by their SMILES. Bounds are passed on as bounds.

As a reminder, the IC50 is the point on the concentration scale where inhibition reaches its midpoint. For `[O-][n+]1ccc(CC(c2ccc(COc3ccc(F)cc3)cc2)c2ccc(OC(F)F)c(OC(F)F)c2)cc1` (stereo not given), the values for the IC50 in data set [1] and in data set [2] were 1900 nM and 0.5 nM, respectively.
Compound `Clc1ccc(C(Cc2ccncc2)c2ccc3c(c2)OCCO3)cc1` (stereo not given) showed an IC50 in [2] of 772 nM.
Turning to `[O-][n+]1ccc(CC(c2ccc(CO)cc2)c2ccc(OC(F)F)c(OC(F)F)c2)cc1` (stereo not given), the IC50 in data set [1] stood at 470 nM; in data set [2] it was 44 nM.
As for `CCNC(=O)OCc1ccc(C(Cc2cc[n+]([O-])cc2)c2ccc(OC(F)F)c(OC(F)F)c2)cc1` (stereo not given), the half-maximal inhibitory concentration (IC50) in data set [1] was 410 nM; in data set [2], 4.6 nM.
Turning to `FC(F)Oc1ccc(C(Cc2ccncc2)c2ccc(Cl)cc2)cc1OC(F)F` (stereo not given), the IC50 came out at 4500 nM in data set [1] and 11 nM in data set [2].
Turning to `CN(C)C(=O)c1ccc(C(Cc2cc[n+]([O-])cc2)c2ccc(OC(F)F)c(OC(F)F)c2)cc1` (stereo not given), the results for the IC50 in data set [1] and in data set [2] were 1000 nM and 8.6 nM, respectively.
For `FC(F)Oc1ccc(C(Cc2ccncc2)c2ccc(Cl)cc2)cc1OC1CCCC1` (stereo not given), the IC50 in [1] was found to be 8700 nM; in data set [2], 13 nM.
The corresponding values for `O=C(O)c1ccc(C(Cc2cc[n+]([O-])cc2)c2ccc(OC(F)F)c(OC(F)F)c2)cc1` (stereo not given) are 77000 nM and 24 nM.
A word on the half-life: it is the time in which the quantity being followed falls by half. On to `COc1ccc([C@H](Cc2ccncc2)c2ccccc2)cc1OC1CCCC1` [CDP840], for which the results for the half-life in data set [3] and in data set [4] were under 60 min and under 30 min, respectively. Further, the Dose in data set [5] came out at 30 mg/kg. Further, the results for the IC50 in data set [1] and in data set [2] were 16000 nM and 4.3 nM, respectively. The Efficacy in data set [6] amounted to 64%.
As usually defined, the bioavailability is the share of a dose that reaches the circulation, judged against a reference dose that is usually intravenous. The compound `[O-][n+]1ccc(CC(c2ccc(C3(O)CCC3)cc2)c2ccc(OC(F)F)c(OC(F)F)c2)cc1` (stereo not given) came in with a bioavailability in data set [7] of 100%. The compound further had a half-life in [8] of 120 min. The IC50 turned out to be 380 nM in data set [1] and 7.5 nM in [2].
`Cc1ccccc1C(=O)NS(=O)(=O)c1ccc(C(Cc2cc[n+]([O-])cc2)c2ccc(OC(F)F)c(OC(F)F)c2)cc1` (stereo not given): the IC50 was found to be 75000 nM in data set [1] and 3.1 nM in data set [2].
In the case of `Cc1ccc(C(=O)c2ccc(C(Cc3cc[n+]([O-])cc3)c3ccc(OC(F)F)c(OC(F)F)c3)cc2)nc1` (stereo not given), the IC50 was found to be 890 nM in data set [1] and 7.3 nM in data set [2].
In the case of `COc1ccc(C(Cc2ccncc2)c2ccc(Cl)cc2)c(F)c1OC1CCCC1` (stereo not given), the values for the IC50 in data set [1] and in data set [2] were 98000 nM and 110 nM, respectively.
With `COc1ccc(C(Cc2ccncc2)c2ccc(Cl)cc2)cc1OC1CCCC1` (stereo not given), the IC50 in data set [1] came to 12000 nM; in [2], 2.8 nM.
Regarding `O=C(O)Cc1ccc(C(Cc2cc[n+]([O-])cc2)c2ccc(OC(F)F)c(OC(F)F)c2)cc1` (stereo not given), the IC50 in [1] came to 58000 nM; in [2] it was 53 nM.
For `Clc1ccc(C(Cc2ccncc2)c2ccc3c(c2)OCO3)cc1` (stereo not given), the IC50 in [2] was over 1000 nM.
Regarding `[O-][n+]1ccc(CC(c2ccc(C(O)(C(F)(F)F)C(F)(F)F)cc2)c2ccc(OC(F)F)c(OC(F)F)c2)cc1` (stereo not given), the half-life in data set [3] was 2880 min; in [4] it was over 1440 min. The Dose in [5] was over 3 mg/kg. Besides, the Efficacy in [9] was 58%; in data set [10] it was 85%; in data set [11] it was 95%; in data set [12] it was 96%. Besides, the results for the IC50 in [1] and in data set [2] were 670 nM and 4.2 nM, respectively.
As to `[O-][n+]1ccc(CC(c2ccc(C3(O)CC3)cc2)c2ccc(OC(F)F)c(OC(F)F)c2)cc1` (stereo not given), the IC50 in data set [1] worked out at 1700 nM; in data set [2], 16 nM.
`CC(C)(O)c1ccc(C(Cc2cc[n+]([O-])cc2)c2ccc(OC(F)F)c(OC(F)F)c2)cc1` (stereo not given): the bioavailability in data set [7] is 55%. Moreover, the half-life in data set [8] was 60 min. The IC50 was 360 nM in data set [1] and 9.6 nM in data set [2].
As for `CC(C)(C(=O)O)c1cccc(-c2ccc(C(Cc3cc[n+]([O-])cc3)c3ccc(OC(F)F)c(OC(F)F)c3)cc2)c1` (stereo not given), the IC50 was determined as 6500 nM in data set [1] and 2.2 nM in data set [2].
As to `CC(O)c1ccc(C(Cc2cc[n+]([O-])cc2)c2ccc(OC(F)F)c(OC(F)F)c2)cc1` (stereo not given), the IC50 in data set [1] is 510 nM; in [2], 45 nM.
